Measurements taken from patent US7863449B2, “Modulators of muscarinic receptors” (Vertex Pharmaceuticals Incorporated, priority 2004, dated 2011).

Assays:
M4 muscarinic receptor = target: T1, M4 muscarinic receptor (Homo sapiens, UniProt P08173); experiment: Functional mobilization of intracellular calcium (FLIPR), M4-CHO cells; format: cell-based; conditions: for Emax: 100% efficacy is the maximum response obtained using Carbachol as a control; for M4 Activity: M4-CHO cells, FLIPR calcium mobilization
T1 construct: expressed in transfected cells; host or cells: CHO (M4-CHO)
T1 sequence (P08173 1-479): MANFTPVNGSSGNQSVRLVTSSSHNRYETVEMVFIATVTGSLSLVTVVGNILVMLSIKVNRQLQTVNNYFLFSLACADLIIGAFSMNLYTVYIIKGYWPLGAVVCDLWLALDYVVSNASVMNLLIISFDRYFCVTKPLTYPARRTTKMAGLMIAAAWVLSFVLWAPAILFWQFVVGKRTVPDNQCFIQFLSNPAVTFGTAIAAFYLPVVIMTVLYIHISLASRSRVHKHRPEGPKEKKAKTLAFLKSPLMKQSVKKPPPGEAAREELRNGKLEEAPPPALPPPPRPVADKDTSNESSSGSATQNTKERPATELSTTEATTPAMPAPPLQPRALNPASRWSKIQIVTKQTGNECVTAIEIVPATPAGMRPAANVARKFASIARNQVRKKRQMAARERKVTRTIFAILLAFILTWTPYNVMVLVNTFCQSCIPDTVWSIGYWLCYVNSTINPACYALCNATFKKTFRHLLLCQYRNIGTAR
Method in brief: (§1)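 Calcium flux recorded 60 s (ex 488, em 540 nm) in dye-loaded M1- or M4-CHO cells in pH 7.4 buffer with 1 mM probenecid. Inhibition measured against carbachol EC80 after 15 min compound pre-incubation or co-addition; agonism measured by compound addition alone. Final DMSO 0.5%.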

M1 muscarinic receptor = target: T2, M1 muscarinic receptor (Homo sapiens, UniProt P11229); experiment: Functional mobilization of intracellular calcium (FLIPR), M1-CHO cells; format: cell-based; conditions: for Emax: 100% efficacy is the maximum response obtained using Carbachol as a control; for M1 Activity: M1-CHO cells, FLIPR calcium mobilization
T2 construct: expressed in transfected cells; host or cells: CHO (M1-CHO)
T2 sequence (P11229 1-460): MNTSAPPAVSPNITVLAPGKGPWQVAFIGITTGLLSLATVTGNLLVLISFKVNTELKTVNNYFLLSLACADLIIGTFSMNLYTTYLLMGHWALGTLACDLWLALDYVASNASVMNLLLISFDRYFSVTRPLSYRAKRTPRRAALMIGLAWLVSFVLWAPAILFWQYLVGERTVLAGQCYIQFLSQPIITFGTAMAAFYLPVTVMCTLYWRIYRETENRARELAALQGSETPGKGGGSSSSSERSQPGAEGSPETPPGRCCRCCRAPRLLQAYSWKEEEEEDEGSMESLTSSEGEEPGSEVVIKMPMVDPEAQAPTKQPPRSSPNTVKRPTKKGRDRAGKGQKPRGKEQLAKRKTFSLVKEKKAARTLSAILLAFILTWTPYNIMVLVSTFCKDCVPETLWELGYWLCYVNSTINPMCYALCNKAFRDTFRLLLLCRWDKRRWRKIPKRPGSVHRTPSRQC
Method in brief: as §1

SMILES | Emax (M4 muscarinic receptor) [%] | M4 Activity (M4 muscarinic receptor) | Emax (M1 muscarinic receptor) [%] | M1 Activity (M1 muscarinic receptor)
CCOC(=O)N1C2CCC1CC(N1CCC3(CC1)CN(c1cccc(OC)c1)Cc1ccccc13)C2 (centres unmarked) [compound 141, ethyl 3-(2-(3-methoxyphenyl)-2,3-dihydro-1H-spiro[isoquinoline-4,4′-piperidine]-1′-yl)-8-azabicyclo[3.2.1]octane-8-carboxylate] | 25 to 100 | +++ (activity was measured to be less than 1.0 μM) | 25 to 100 | +++ (activity was measured to be less than 1.0 μM)
CC(=O)N1Cc2ccccc2C2(CCN(CC3=C(C)C=CCC3(C)C)CC2)C1 [compound 65] | 25 to 100 | + (activity was measured to be greater than 5.0 μM) | 25 to 100 | + (activity was measured to be greater than 5.0 μM)
CCOC(=O)N1CCC(N2CCC3(CC2)OC(=O)c2ccccc23)CC1 [compound 314, ethyl 4-(3-oxo-3H-spiro[isobenzofuran-1,4′-piperidine]-1′-yl)piperidine-1-carboxylate] | 25 to 100 | +++ (activity was measured to be less than 1.0 μM) | 25 to 100 | +++ (activity was measured to be less than 1.0 μM)
CCOC(=O)N1CC[C@H](CN2CCC3(CC2)CN(C(C)=O)Cc2ccccc23)C1 [compound 320] | 25 to 100 | +++ (activity was measured to be less than 1.0 μM) | 25 to 100 | +++ (activity was measured to be less than 1.0 μM)
CC(C)OC(=O)N1Cc2ccccc2C2(CCN(C3CC4CCC(C3)N4C(=O)O[C@@H]3CCOC3)CC2)C1 (some centres unmarked) [compound 195] | 25 to 100 | +++ (activity was measured to be less than 1.0 μM) | 25 to 100 | +++ (activity was measured to be less than 1.0 μM)
CCOC(=O)N1CCC(N2CCC3(CC2)CN(C(=O)NC2CCCCC2)Cc2ccccc23)CC1 [compound 163] | 25 to 100 | +++ (activity was measured to be less than 1.0 μM) | 25 to 100 | +++ (activity was measured to be less than 1.0 μM)
CCOC(=O)N1C2CCC1CC(N1CCC3(CC1)CN(S(=O)(=O)c1ccc(C)cc1)Cc1ccccc13)C2 (centres unmarked) [compound 18] | 25 to 100 | +++ (activity was measured to be less than 1.0 μM) | 25 to 100 | +++ (activity was measured to be less than 1.0 μM)
CCOC(=O)N1CCC(CN2CCC3(CC2)CN(C(=O)c2ccno2)Cc2ccccc23)CC1 [compound 214] | 25 to 100 | +++ (activity was measured to be less than 1.0 μM) | 25 to 100 | +++ (activity was measured to be less than 1.0 μM)
CCCCNC(=O)N1Cc2ccccc2C2(CCN(C3CCN(C(=O)OCC)CC3)CC2)C1 [compound 106] | 25 to 100 | +++ (activity was measured to be less than 1.0 μM) | 25 to 100 | +++ (activity was measured to be less than 1.0 μM)
CCCCOC(=O)N1Cc2ccccc2C2(CCN(C3CCN(C(=O)OCC)CC3)CC2)C1 [compound 56] | 25 to 100 | +++ (activity was measured to be less than 1.0 μM) | 25 to 100 | +++ (activity was measured to be less than 1.0 μM)
CCOC(=O)N1C2CCC1CC(N1CCC3(CC1)CN(S(=O)(=O)c1ccc(OC(F)(F)F)cc1)Cc1ccccc13)C2 (centres unmarked) [compound 67] | 25 to 100 | +++ (activity was measured to be less than 1.0 μM) | 25 to 100 | ++ (activity was measured to be from 1.0 μM to 5.0 μM)
CC(=O)Oc1cccc(CN2CCC3(CC2)CN(C(C)=O)Cc2ccccc23)c1 [compound 188] | < 25 | + (activity was measured to be greater than 5.0 μM) | < 25 | + (activity was measured to be greater than 5.0 μM)
CCOC(=O)N1CC[C@@H](CN2CCC3(CC2)CN(C(C)=O)Cc2ccccc23)C1 [compound 216] | 25 to 100 | +++ (activity was measured to be less than 1.0 μM) | 25 to 100 | +++ (activity was measured to be less than 1.0 μM)
CCOC(=O)N1C2CCC1CC(N1CCC3(CC1)CN(c1cccc(Cl)c1)Cc1ccccc13)C2 (centres unmarked) [compound 136] | 25 to 100 | +++ (activity was measured to be less than 1.0 μM) | > 100 | +++ (activity was measured to be less than 1.0 μM)
CC(=O)N1Cc2ccccc2C2(CCN(C3CCC(=O)CC3)CC2)C1 [compound 153] | 25 to 100 | ++ (activity was measured to be from 1.0 μM to 5.0 μM) | 25 to 100 | + (activity was measured to be greater than 5.0 μM)
CCOC(=O)N1CCC(N2CCC3(CC2)OC(=O)c2ccc(C)cc23)CC1 [compound 277] | 25 to 100 | +++ (activity was measured to be less than 1.0 μM) | 25 to 100 | +++ (activity was measured to be less than 1.0 μM)
CN(C)C(=O)N1Cc2ccccc2C2(CCN(C3CC4CCC(C3)N4C(=O)O[C@@H]3CCOC3)CC2)C1 (stereo partly drawn) [compound 48, (R)-tetrahydrofuran-3-yl 3-(2-(dimethylcarbamoyl)-2,3-dihydro-1H -spiro[isoquinoline-4,4′-piperidine]-1′-yl)-8-azabicyclo[3.2.1]octane-8-carboxylate] | 25 to 100 | +++ (activity was measured to be less than 1.0 μM) | 25 to 100 | +++ (activity was measured to be less than 1.0 μM)
CCOC(=O)N1CCC(N2CCC3(CC2)CN(S(=O)(=O)N(C)C)Cc2ccccc23)CC1 [compound 176] | 25 to 100 | +++ (activity was measured to be less than 1.0 μM) | 25 to 100 | +++ (activity was measured to be less than 1.0 μM)
CCOC(=O)N1C2CCC1CC(N1CCC3(CC1)CN(S(=O)(=O)c1ccc(C#N)cc1)Cc1ccccc13)C2 (centres unmarked) [compound 355] | 25 to 100 | +++ (activity was measured to be less than 1.0 μM) | 25 to 100 | +++ (activity was measured to be less than 1.0 μM)
CC(=O)N1Cc2ccccc2C2(CCN(Cc3ccc(F)cc3)CC2)C1 [compound 115] | < 25 | + (activity was measured to be greater than 5.0 μM) | < 25 | + (activity was measured to be greater than 5.0 μM)
CCOC(=O)N1C2CCC1CC(N1CCC3(CC1)CN(C(=O)c1cc(C)nn1C(C)(C)C)Cc1ccccc13)C2 (centres unmarked) [compound 15] | 25 to 100 | +++ (activity was measured to be less than 1.0 μM) | 25 to 100 | +++ (activity was measured to be less than 1.0 μM)
CC(=O)N1Cc2ccccc2C2(CCN(CC3CCN(C(=O)OC(C)C)CC3)CC2)C1 [compound 161] | < 25 | +++ (activity was measured to be less than 1.0 μM) | 25 to 100 | ++ (activity was measured to be from 1.0 μM to 5.0 μM)
CC(=O)N1Cc2ccccc2C2(CCN(C3CC4CCC(C3)N4C(=O)O[C@H]3CCOC3)CC2)C1 (some centres unmarked) [compound 354] | 25 to 100 | +++ (activity was measured to be less than 1.0 μM) | 25 to 100 | +++ (activity was measured to be less than 1.0 μM)
COCCOC(=O)N1C2CCC1CC(N1CCC3(CC1)CN(C(=O)OC)Cc1ccccc13)C2 (centres unmarked) [compound 183] | 25 to 100 | +++ (activity was measured to be less than 1.0 μM) | 25 to 100 | +++ (activity was measured to be less than 1.0 μM)
CC(C)(C)CCN1CCC2(CC1)NC(=O)c1ccccc12 [compound 346] | 25 to 100 | ++ (activity was measured to be from 1.0 μM to 5.0 μM) | 25 to 100 | ++ (activity was measured to be from 1.0 μM to 5.0 μM)
CC(=O)N1Cc2ccccc2C2(CCN(C3CCCCCC3)CC2)C1 [compound 349] | 25 to 100 | +++ (activity was measured to be less than 1.0 μM) | 25 to 100 | +++ (activity was measured to be less than 1.0 μM)
